{"source": "patent US5843449A", "about": "“Proteins and novel peptides derived from autoantigen for use in immunotherapy of autoimmune diseases” (Akzo Nobel N.V., priority 1996, dated 1998)", "key": {"PBMC from healthy donors": {"tested_on": "PBMC from healthy donors", "assay": "Proliferative responses of PBMC from healthy donors (3H-thymidine)", "format": "cell-based, human", "conditions": "10% autologous serum", "procedure": "PBMC's from healthy donors carrying the DR4Dw4 (DRB1*0401) or the DR1 specificity were collected as a control.\n(§1) PBMC obtained from heparinized venous peripheral blood were isolated by standard centrifugation on a Ficoll-Paque gradient. […] Cultures were incubated in a total volume of 210 μl for 7 days at 37° C. in a humidified atmosphere of 5% CO2. Cultures were pulsed during the last 18 hours with 0.25 μCi^3 H-thymidine."}, "DR4Dw14 HLA-DR molecules": {"target": "DR4Dw14 HLA-DR molecules", "assay": "HLA-DR peptide binding assay (competition with biotinylated marker peptide), DR4Dw14", "design": "species or system human", "conditions": "pH = 5, 50 nM biotin-spacer-IHA(307-319)F marker peptide"}, "[1]": {"target": "T1, DR4Dw4 (DRB1*0401) HLA-DR molecules (Homo sapiens, UniProt P01903+P01911, A100K/A169T/F76Y/I96L/K127E/L162R/M171V/N62H/P40V/Q125Y/R42H/S133A/S149N/S66Y/V115G/V209L/W38E)", "T1 construct": "endogenous in cells; host or cells: BSM, EBV-transformed B-cell line", "assay": "HLA-DR peptide binding assay (competition with biotinylated marker peptide), DR4Dw4", "conditions": "pH = 5, 50 nM biotin-spacer-IHA(307-319)F marker peptide"}, "PBMC from RA patients": {"tested_on": "PBMC from RA patients", "assay": "Proliferative responses of PBMC from RA patients (3H-thymidine)", "format": "cell-based, human", "conditions": "10% autologous serum", "procedure": "Peripheral blood mononuclear cells (PBMC) from patients who were diagnosed as suffering from RA according to the American Rheumatism Association (ARA) criteria (Arnett et al., Arthritis Rheum. 31:315, 1988) were collected.\nas §1"}}, "note": "Where two headings read alike, the source gives them in different places. Residues, ends and D or L forms follow the SMILES beside them."}
{"smiles": "CC(C)C[C@H](NC(=O)[C@@H](NC(=O)[C@H](Cc1ccccc1)NC(=O)[C@H](CO)NC(=O)[C@@H](N)CCCNC(=N)N)[C@@H](C)O)C(=O)N[C@@H](C)C(=O)N[C@@H](CO)C(=O)N[C@@H](CO)C(=O)N[C@@H](CCC(=O)O)C(=O)N[C@H](C(=O)NCC(=O)N[C@H](C(=O)NCC(=O)O)C(C)C)[C@@H](C)O", "note": "[Peptide 2] (H-RSFTLASSETGVG-OH)", "values": [{"measurement": "Proliferative response, stimulation index (SI)", "setting": "PBMC from healthy donors; healthy donor 155-03 (NR), peptide 10 μg/ml", "result": 1}, {"measurement": "Proliferative response, stimulation index (SI)", "setting": "PBMC from healthy donors; healthy donor 155-03 (NR), peptide 100 μg/ml", "result": 1}, {"measurement": "Proliferative response, stimulation index (SI)", "setting": "PBMC from healthy donors; healthy donor 156-03 (NR), peptide 10 μg/ml", "result": 1}, {"measurement": "Proliferative response, stimulation index (SI)", "setting": "PBMC from healthy donors; healthy donor 156-03 (NR), peptide 100 μg/ml", "result": "< 1"}, {"measurement": "Proliferative response, stimulation index (SI)", "setting": "PBMC from healthy donors; healthy donor 157-03 (NR), peptide 10 μg/ml", "result": "< 2"}, {"measurement": "Proliferative response, stimulation index (SI)", "setting": "PBMC from healthy donors; healthy donor 157-03 (NR), peptide 100 μg/ml", "result": "< 2"}, {"measurement": "Proliferative response, stimulation index (SI)", "setting": "PBMC from healthy donors; healthy donor 157-04 (R), peptide 10 μg/ml", "result": 1}, {"measurement": "Proliferative response, stimulation index (SI)", "setting": "PBMC from healthy donors; healthy donor 157-04 (R), peptide 100 μg/ml", "result": "< 1"}, {"measurement": "Proliferative response, stimulation index (SI)", "setting": "PBMC from healthy donors; healthy donor 168-03 (NR), peptide 10 μg/ml", "result": "< 1"}, {"measurement": "Proliferative response, stimulation index (SI)", "setting": "PBMC from healthy donors; healthy donor 168-03 (NR), peptide 100 μg/ml", "result": "< 1"}, {"measurement": "Proliferative response, stimulation index (SI)", "setting": "PBMC from healthy donors; healthy donor 168.02 (NR), peptide 10 μg/ml", "result": "< 2"}, {"measurement": "Proliferative response, stimulation index (SI)", "setting": "PBMC from healthy donors; healthy donor 168.02 (NR), peptide 100 μg/ml", "result": "< 1"}, {"measurement": "Proliferative response, stimulation index (SI)", "setting": "PBMC from healthy donors; healthy donor 169-02 (NR), peptide 10 μg/ml", "result": 1}, {"measurement": "Proliferative response, stimulation index (SI)", "setting": "PBMC from healthy donors; healthy donor 169-02 (NR), peptide 100 μg/ml", "result": 1}, {"measurement": "Proliferative response, stimulation index (SI)", "setting": "PBMC from healthy donors; healthy donor 230-01 (NR), peptide 10 μg/ml", "result": 1}, {"measurement": "Proliferative response, stimulation index (SI)", "setting": "PBMC from healthy donors; healthy donor 230-01 (NR), peptide 100 μg/ml", "result": 1}, {"measurement": "Proliferative response, stimulation index (SI)", "setting": "PBMC from healthy donors; healthy donor 235-0 (NR), peptide 10 μg/ml", "result": 1}, {"measurement": "Proliferative response, stimulation index (SI)", "setting": "PBMC from healthy donors; healthy donor 235-0 (NR), peptide 100 μg/ml", "result": "< 2"}, {"measurement": "Proliferative response, stimulation index (SI)", "setting": "PBMC from healthy donors; healthy donor 235-01 (NR), peptide 10 μg/ml", "result": "< 1"}, {"measurement": "Proliferative response, stimulation index (SI)", "setting": "PBMC from healthy donors; healthy donor 235-01 (NR), peptide 100 μg/ml", "result": "< 1"}, {"measurement": "Proliferative response, stimulation index (SI)", "setting": "PBMC from healthy donors; healthy donor 236-01 (NR), peptide 10 μg/ml", "result": 1}, {"measurement": "Proliferative response, stimulation index (SI)", "setting": "PBMC from healthy donors; healthy donor 236-01 (NR), peptide 100 μg/ml", "result": 1}, {"measurement": "Proliferative response, stimulation index (SI)", "setting": "PBMC from healthy donors; healthy donor 237-0 (NR), peptide 10 μg/ml", "result": "< 2"}, {"measurement": "Proliferative response, stimulation index (SI)", "setting": "PBMC from healthy donors; healthy donor 237-0 (NR), peptide 100 μg/ml", "result": "< 1"}, {"measurement": "Proliferative response, stimulation index (SI)", "setting": "PBMC from healthy donors; healthy donor 237-01 (NR), peptide 10 μg/ml", "result": 1}, {"measurement": "Proliferative response, stimulation index (SI)", "setting": "PBMC from healthy donors; healthy donor 237-01 (NR), peptide 100 μg/ml", "result": 1}, {"measurement": "Proliferative response, stimulation index (SI)", "setting": "PBMC from healthy donors; healthy donor 238-01 (NR), first line so labelled, peptide 10 μg/ml", "result": 1}, {"measurement": "Proliferative response, stimulation index (SI)", "setting": "PBMC from healthy donors; healthy donor 238-01 (NR), first line so labelled, peptide 100 μg/ml", "result": "< 1"}, {"measurement": "Proliferative response, stimulation index (SI)", "setting": "PBMC from healthy donors; healthy donor 238-01 (NR), second line so labelled, peptide 10 μg/ml", "result": 1}, {"measurement": "Proliferative response, stimulation index (SI)", "setting": "PBMC from healthy donors; healthy donor 238-01 (NR), second line so labelled, peptide 100 μg/ml", "result": 1}, {"measurement": "Proliferative response, stimulation index (SI)", "setting": "PBMC from healthy donors; healthy donor 241-0 (NR), peptide 10 μg/ml", "result": 1}, {"measurement": "Proliferative response, stimulation index (SI)", "setting": "PBMC from healthy donors; healthy donor 241-0 (NR), peptide 100 μg/ml", "result": "< 1"}, {"measurement": "Proliferative response, stimulation index (SI)", "setting": "PBMC from healthy donors; healthy donor 241-01 (R), peptide 10 μg/ml", "result": "< 1"}, {"measurement": "Proliferative response, stimulation index (SI)", "setting": "PBMC from healthy donors; healthy donor 241-01 (R), peptide 100 μg/ml", "result": "< 1"}, {"measurement": "IC50", "setting": "DR4Dw14 HLA-DR molecules; DOT Blot, densitometer, read-out: ^R IC50, DR4Dw14, DOT Blot", "result": 190, "unit": "nM"}, {"measurement": "IC50", "setting": "DR4Dw14 HLA-DR molecules; SDS-PAGE, visual inspection, read-out: ^R IC50, DR4Dw14, SDS-PAGE", "result": 200, "unit": "nM"}, {"measurement": "IC50", "setting": "[1]; DOT Blot, densitometer, read-out: ^R IC50, DR4Dw4, DOT Blot", "result": 80, "unit": "nM"}, {"measurement": "IC50", "setting": "[1]; SDS-PAGE, visual inspection, read-out: ^R IC50, DR4Dw4, SDS-PAGE", "result": 40, "unit": "nM"}, {"measurement": "Proliferative response, stimulation index (SI)", "setting": "PBMC from RA patients; RA patient 191-03 (HR), disease state IV, peptide 10 μg/l", "result": 1}, {"measurement": "Proliferative response, stimulation index (SI)", "setting": "PBMC from RA patients; RA patient 191-03 (HR), disease state IV, peptide 100 μg/l", "result": "< 2"}, {"measurement": "Proliferative response, stimulation index (SI)", "setting": "PBMC from RA patients; RA patient 215-0 (HR), disease state III-IV, peptide 25 μg/l", "result": 3}, {"measurement": "Proliferative response, stimulation index (SI)", "setting": "PBMC from RA patients; RA patient 215-0 (HR), disease state III-IV, peptide 100 μg/l", "result": 19}, {"measurement": "Proliferative response, stimulation index (SI)", "setting": "PBMC from RA patients; RA patient 240-0 (HR), disease state II-III, peptide 25 μg/l", "result": 5}, {"measurement": "Proliferative response, stimulation index (SI)", "setting": "PBMC from RA patients; RA patient 240-0 (HR), disease state II-III, peptide 100 μg/l", "result": 6}, {"measurement": "Proliferative response, stimulation index (SI)", "setting": "PBMC from RA patients; RA patient 242-0 (HR), disease state I, peptide 25 μg/l", "result": 4}, {"measurement": "Proliferative response, stimulation index (SI)", "setting": "PBMC from RA patients; RA patient 243-0 (R), disease state III, peptide 10 μg/l", "result": 1}, {"measurement": "Proliferative response, stimulation index (SI)", "setting": "PBMC from RA patients; RA patient 243-0 (R), disease state III, peptide 100 μg/l", "result": 6}, {"measurement": "Proliferative response, stimulation index (SI)", "setting": "PBMC from RA patients; RA patient 247-0 (R), disease state III, peptide 10 μg/l", "result": 1}, {"measurement": "Proliferative response, stimulation index (SI)", "setting": "PBMC from RA patients; RA patient 247-0 (R), disease state III, peptide 100 μg/l", "result": 2}, {"measurement": "Proliferative response, stimulation index (SI)", "setting": "PBMC from RA patients; RA patient 248-0 (R), disease state III, peptide 10 μg/l", "result": 1}, {"measurement": "Proliferative response, stimulation index (SI)", "setting": "PBMC from RA patients; RA patient 248-0 (R), disease state III, peptide 100 μg/l", "result": 1}, {"measurement": "Proliferative response, stimulation index (SI)", "setting": "PBMC from RA patients; RA patient 272-0 (HR), disease state III-IV, peptide 10 μg/l", "result": "< 1"}, {"measurement": "Proliferative response, stimulation index (SI)", "setting": "PBMC from RA patients; RA patient 272-0 (HR), disease state III-IV, peptide 100 μg/l", "result": "< 1"}, {"measurement": "Proliferative response, stimulation index (SI)", "setting": "PBMC from RA patients; RA patient 273-0 (HR), disease state IV, peptide 10 μg/l", "result": 7}, {"measurement": "Proliferative response, stimulation index (SI)", "setting": "PBMC from RA patients; RA patient 273-0 (HR), disease state IV, peptide 100 μg/l", "result": 6}, {"measurement": "Proliferative response, stimulation index (SI)", "setting": "PBMC from RA patients; RA patient 275-0 (HR), disease state III, peptide 10 μg/l", "result": 2}, {"measurement": "Proliferative response, stimulation index (SI)", "setting": "PBMC from RA patients; RA patient 275-0 (HR), disease state III, peptide 100 μg/l", "result": 9}, {"measurement": "Proliferative response, stimulation index (SI)", "setting": "PBMC from RA patients; RA patient 276-0 (HR), disease state IV, burnt out, peptide 10 μg/l", "result": 3}, {"measurement": "Proliferative response, stimulation index (SI)", "setting": "PBMC from RA patients; RA patient 276-0 (HR), disease state IV, burnt out, peptide 100 μg/l", "result": 1}, {"measurement": "Proliferative response, stimulation index (SI)", "setting": "PBMC from RA patients; RA patient 280-0 (HR), disease state IV, burnt out, peptide 10 μg/l", "result": 1}, {"measurement": "Proliferative response, stimulation index (SI)", "setting": "PBMC from RA patients; RA patient 280-0 (HR), disease state IV, burnt out, peptide 100 μg/l", "result": 4}]}
